Laboratory results from US6534039B2, “Extended organic cobalt and nickel magnetic complexes” (priority 2000, dated 2003).

Legend:
[1] = test system: brain tumor (N32 and F98); assay: MRI of brain tumors in rats with contrast agent; format: in vivo, rat
Excerpt: Rats were implanted with tumors by stereotactic infusion of tumor cells into the brain.
Various MRI imaging modes were used in the analysis: T1-weighted, T2-weighted, and T2*-weighted.
Rats weighing about 350 g, seeded with either F98 or N32 cells were used for tumor imaging. A<0.5 mm burr hole was drilled through the skull of the anesthetized rats at the point of inoculation. Tumors were initiated by inoculating one microliter of culture medium, containing 10,000 cultured cells, 4-5 mm deep into the left striatum, at a point 4 mm to the left of the midline in the (serrated) coronal suture. A 27-gauge needle fitted with a depth-limiting plastic collar to ensure cell injection 4-5 mm beneath the skull was connected to a Hamilton microsyringe via flexible tubing. Following a 30-second infusion of the cells, another 30 seconds was taken to allow the cells to settle before removing the needle. For F98 tumor animals, death ensued 24+ days after inoculation.
MRI was performed at day 16 after tumor cell implantation. […] The rats were immediately positioned on a support and MRI was performed in a 1.5 tesla whole-body clinical scanner (Siemens Vision, Germany) with a human extremity (knee) coil. High-resolution turbo spin-echo sagittal imaging was used for selecting slice position with imaging parameters as follows. […]

regions of wound healing = assay: Wound healing delineation by MRI; format: in vivo, rat; settings: site opened two weeks prior for injecting tumor cells
Procedure: MRI was performed at day 16 after tumor cell implantation. The animals were anesthetized and injected interperitoneally with either 200 microliters of gadodiamide (287 mg gadodiamide/ml) (Omniscan, Nycomed, Princeton, N.J.) or 200 microliters of the extended cobalt complex (containing 10 mg Co/ml ±30%). The rats were immediately positioned on a support and MRI was performed in a 1.5 tesla whole-body clinical scanner (Siemens Vision, Germany) with a human extremity (knee) coil. High-resolution turbo spin-echo sagittal imaging was used for selecting slice position with imaging parameters as follows. For T2 weighted images: repetition time (TR)=3000 msec; echo time (TE)=25 msec; field of view (FOV)=100×100 mm; matrix size=256×256; image slice thickness (TH)=2 mm. Tumor images were collected at various times after a single interperitoneal injection. Imaging times were 3 min/scan and resolution was […]. Imaging covered a 30 min period after injection.
This is surprising as the vasculature and components of a wounded region differ from normal tissue only subtly, and these differences are not highlighted by the gadodiamide reagent. This type of imaging can be used to detect internal damage, internal bleeding, or other forms of lesions with MRI using the cobalt complex as contrast agent.
Methods were performed as in Example 8.

[2] = rat, in vivo, ip

- ALBm (albumen) [2]: 1.5 g/dL
- ALP (alkaline phosphatase) [2]: 202 IU/L
- BUNm (blood urea nitrogen) [2]: 16 mg/dL
- CK (creatine kinase) [2]: 820 IU/L
- CL (chloride) [2]: 101 mEq/L
- CO2 (carbon dioxide) [2]: 30 mEq/L
- GLUCm (glucose) [2]: 177 mg/dL
- K (potassium) [2]: 5.5 mEq/L
- NA (sodium) [2]: 139 mEq/L
- liver enzyme activity compared to the control [2]: slight increase
Compound: CNC(=O)CN(CCN(CCN(CC(=O)[O-])CC(=O)NC)CC(=O)[O-])CC(=O)[O-].[Gd+3] [gadodiamide]
- tumor visibility in all MRI imaging modes ([1]; T1-weighted, T2-weighted and T2*-weighted): no trace of any tumors was evident
- enhancement / imaging of brain tumor by MRI ([1]; rats with N32 or F98 tumor, 200 microliters interperitoneally, 1.5 tesla): No enhancement
- image contrast at wound site by MRI (regions of wound healing): No such contrast was evident
- ALT (alanine transaminase) [2]: 62 IU/L
- AST (aspartate transaminase) [2]: 183 IU/L
